This note sets out measurements from patent publication US20220096597A1, “CARDIO-PROTECTIVE EFFECT OF VASOCONSTRICTION-INHIBITING FACTOR (VIF)” (Rheinisch-Westfälische Technische Hochschule Aachen (RWTH), priority 2019, published 2022).

The data set concerns C57BL/6N mice with induced myocardial infarction. Kind of data set: Histology and immunohistochemistry of hearts after induced infarction. The format is in vivo. Conditions: infarcted mouse heart, up to 28 days; FIG. 6A and 6C. The method, then:
To further study the newly identified effects of VIF (according to SEQ ID NO: 1), and especially in vivo, 8 to 10 week old wild type male C57BL/6N mice (Charles River, Germany) were intubated under anesthesia (100 mg/kg ketamine, 10 mg/kg xylazine, i.p.) and analgesia (0.1 mg/kg buprenorphine). The mice were ventilated with positive pressure and oxygenation using a rodent respirator (Harvard Apparatus, Germany). […]
A Gömöri trichrome staining was performed to determine the infarct size. Subsequently, three slices per mouse from 3 to 5 different mice were analyzed using ImageJ. after one of anti-SMA antibody (smooth muscle actin, DAKO, FIG. 6D), anti-MAC3 antibody (BD Pharmingen, FIG. 6B), anti-MPO antibody (Neomarkers, FIG. 6A) and anti-CD31 antibody (Santa Cruz Biotechnology, FIG. 6E) staining, followed by staining with fluorescein isothiocyanate (FITC)—or a Cy3-conjugated secondary antibody (DAKO, Germany). Positively stained cells or double-positive stained cells (FIG. 6C for anti-MAC3/MPO) were counted in three different fields per slice and expressed as cells per field of view (200× magnification).

Ends that are not written are not given here.

Consider “HSGFEDELSEVLENQSSQAELKEAVEEPSSKDVME [VIF]”, for which the “infiltration of neutrophils (anti-MPO) compared to non-treated controls” value was “does not lead to an increased infiltration of neutrophils”.
